From PMC9944328 (Nature Communications, 2023)
Several values for one entry are separate records, joined by “and”; a condition that tells them apart may be missing. Identical values can stand only once.

Target: SSTR2 (Homo sapiens, UniProt P30874)
Test: NanoBiT β-arrestin 1 recruitment assay, HEK293 (SSTR2 wild-type);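 as to Best-fit Bottom: percent of maximal wild-type SSTR2 response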;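 as to Best-fit Top: percent of maximal wild-type SSTR2 response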;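 as to Bottom (best-fit): percent of maximal wild-type response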;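 as to Span (best-fit value): percent of maximal wild-type response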;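 as to Span (best-fit): percent of maximal wild-type response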;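 as to Top (best-fit value): percent of maximal wild-type response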;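 as to Top (best-fit): percent of maximal wild-type response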
Format: cell-based
Parameters: Human full-length SSTR wild-type and mutant vectors were C-terminally fused; expressed in transfected cells; host or cells: HEK293; Best-fit values Bottom / Best-fit values Top / Best-fit values Span / Best-fit Bottom / Best-fit Top / Best-fit Span: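 percent of maximal wild-type SSTR2 response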
Conditions: for β-arrestin recruitment: compared with octreotide, Fig. 1c
Method: The NanoBiT β-arrestin 1 recruitment assays were carried out according to the method described previously. […] Human full-length SSTR wild-type and mutant vectors were C-terminally fused with a 15-amino acid flexible linker and the small fragment (SmBiT). HEK293 cells were seeded into six-well microplates at a density of 1.0 × 10^6 cells/well and cultured for 24 h at 37 °C with 5% CO2. After that, cells were co-transfected with pcDNA3.1+ vectors encoding SSTR wild-type or mutants and human β-arrestin 1. After transfecting for 24 h, the transfected cells were suspended and seeded into white 96-well plates, and then cultured at 37 °C overnight. After that the medium in each well was exchanged for 90 μl of 0.01% bovine serum albumin containing 20 μl of 50 μM coelenterazine h (Carbosynth) diluted in the HBSS assay buffer and incubated for 40 min at room temperature. Then, ligands diluted in the assay buffer was added to each well and the luminescence intensity was measured using the Synergy H1 microplate reader and detected at room temperature in a time period. All data presented are means of at least three independent experiments.

[1] = SSTR2-WT control of I284A-1, T194A-1, I195A-3, L99A-3, Q102A-1
[2] = SSTR2-WT control of I284A-2/-3, T194A-2/-3, L99A-1/-2, Q102A-3

Sequence of SSTR2 (P30874 whole entry): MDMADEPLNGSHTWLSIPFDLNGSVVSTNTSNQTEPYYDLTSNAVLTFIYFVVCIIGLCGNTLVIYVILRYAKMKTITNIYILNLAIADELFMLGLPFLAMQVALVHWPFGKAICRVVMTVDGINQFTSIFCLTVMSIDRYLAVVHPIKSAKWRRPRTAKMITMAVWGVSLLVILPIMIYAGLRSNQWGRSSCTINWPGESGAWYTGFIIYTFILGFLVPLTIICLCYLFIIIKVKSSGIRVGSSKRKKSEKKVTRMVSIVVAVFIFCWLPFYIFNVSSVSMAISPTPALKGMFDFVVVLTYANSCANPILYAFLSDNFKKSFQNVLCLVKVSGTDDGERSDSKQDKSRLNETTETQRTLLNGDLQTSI
Sequence of SSTR2 (P49407 whole entry partner): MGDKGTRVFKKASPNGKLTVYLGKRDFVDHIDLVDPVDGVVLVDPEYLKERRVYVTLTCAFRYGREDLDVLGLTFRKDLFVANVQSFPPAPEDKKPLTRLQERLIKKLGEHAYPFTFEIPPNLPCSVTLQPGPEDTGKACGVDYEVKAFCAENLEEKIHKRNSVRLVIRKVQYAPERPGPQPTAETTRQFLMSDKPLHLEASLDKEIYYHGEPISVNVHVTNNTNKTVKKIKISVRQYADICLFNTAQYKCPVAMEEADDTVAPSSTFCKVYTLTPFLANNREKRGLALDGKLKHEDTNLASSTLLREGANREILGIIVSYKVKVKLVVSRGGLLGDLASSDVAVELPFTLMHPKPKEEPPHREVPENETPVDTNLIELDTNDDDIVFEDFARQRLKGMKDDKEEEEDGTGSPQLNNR

N#Cc1cccc(-c2ccc3ncc(-c4cc(F)cc(F)c4)c(N4CCC(N)CC4)c3c2)c1O [paltusotine]
EC50 (Best-fit EC50, SSTR2-WT control of I284A-1, T194A-1, I195A-3, L99A-3): 420 nM
EC50 (Best-fit EC50, SSTR2-WT control of I284A-2/-3, T194A-2/-3, L99A-1/-2): 455 nM
EC50 (Best-fit EC50, SSTR2-WT-1 control of I195A-1): 306 nM
EC50 (Best-fit EC50, SSTR2-WT-1 control of Y50A-1): 216 nM
EC50 (Best-fit EC50, SSTR2-WT-2 control of I195A-2): 295 nM
EC50 (Best-fit EC50, SSTR2-WT-2 control of Y50A-2): 272 nM
EC50 (Best-fit EC50, SSTR2-WT-3 control of Y50A-3): 306 nM
EC50 (EC50 (best-fit value), SSTR2-WT, run WT-1): 455 nM and 420 nM and 141 nM and 1270 nM and 292 nM
EC50 (EC50 (best-fit value), SSTR2-WT, run WT-2): 455 nM and 399 nM and 131 nM and 141 nM and 613 nM
EC50 (EC50 (best-fit value), SSTR2-WT, run WT-3): 726 nM and 216 nM and 292 nM and 131 nM and 538 nM and 455 nM
EC50 (EC50 (best-fit), WT-1 (D122A set)): 420 nM
EC50 (EC50 (best-fit), WT-1 (F127A set)): 307 nM
EC50 (EC50 (best-fit), WT-1 (I130A set)): 292 nM
EC50 (EC50 (best-fit), WT-1 (Q102A set)): 420 nM
EC50 (EC50 (best-fit), WT-1 (Q126A set)): 306 nM
EC50 (EC50 (best-fit), WT-1 (V103A set)): 306 nM
EC50 (EC50 (best-fit), WT-2 (D122A set)): 399 nM
EC50 (EC50 (best-fit), WT-2 (F127A set)): 272 nM
EC50 (EC50 (best-fit), WT-2 (I130A set)): 141 nM
EC50 (EC50 (best-fit), WT-2 (Q102A set)): 339 nM
EC50 (EC50 (best-fit), WT-2 (Q126A set)): 455 nM
EC50 (EC50 (best-fit), WT-2 (V103A set)): 295 nM
EC50 (EC50 (best-fit), WT-3 (D122A set)): 455 nM
EC50 (EC50 (best-fit), WT-3 (F127A set)): 292 nM
EC50 (EC50 (best-fit), WT-3 (Q102A set)): 455 nM
EC50 (EC50 (best-fit), WT-3 (Q126A set)): 455 nM
EC50 (EC50 (best-fit), WT-3 (V103A set)): 306 nM
EC50 (EC50 (β-arrestin1 recruitment), best-fit, WT-1 (SSTR2-WT set up beside each mutant)): 420 nM and 455 nM and 529 nM
EC50 (EC50 (β-arrestin1 recruitment), best-fit, WT-2 (SSTR2-WT set up beside each mutant)): 455 nM and 420 nM and 613 nM
EC50 (EC50 (β-arrestin1 recruitment), best-fit, WT-3 (SSTR2-WT set up beside each mutant)): 420 nM and 538 nM
EC50 (EC50, β-arrestin recruitment, SSTR2 WT, n=6): 406 ± 5.62 nM
Emax (HEK293): 100%
Best-fit Span (SSTR2-WT control of I284A-1, T194A-1, I195A-3, L99A-3): 106.9
Best-fit Bottom [1]: 1.007
Best-fit LogEC50 [1]: -6.376
Best-fit Top [1]: 107.9
Best-fit Span (SSTR2-WT control of I284A-2/-3, T194A-2/-3, L99A-1/-2): 106.4
Best-fit Bottom [2]: 0.9805
Best-fit LogEC50 [2]: -6.342
Best-fit Top [2]: 107.4
Best-fit Bottom (SSTR2-WT-1 control of I195A-1): 0.5008
Best-fit LogEC50 (SSTR2-WT-1 control of I195A-1): -6.514
Best-fit Span (SSTR2-WT-1 control of I195A-1): 104.2
Best-fit Top (SSTR2-WT-1 control of I195A-1): 104.7
Best-fit Bottom (SSTR2-WT-1 control of Y50A-1): -1.342
Best-fit LogEC50 (SSTR2-WT-1 control of Y50A-1): -6.666
Best-fit Span (SSTR2-WT-1 control of Y50A-1): 105.2
Best-fit Top (SSTR2-WT-1 control of Y50A-1): 103.8
Best-fit Bottom (SSTR2-WT-2 control of I195A-2): 0.4349
Best-fit LogEC50 (SSTR2-WT-2 control of I195A-2): -6.531
Best-fit Span (SSTR2-WT-2 control of I195A-2): 102.7
Best-fit Top (SSTR2-WT-2 control of I195A-2): 103.1
Best-fit Bottom (SSTR2-WT-2 control of Q102A-2): -0.0463
Best-fit LogEC50 (SSTR2-WT-2 control of Q102A-2): -6.469
Best-fit Bottom (SSTR2-WT-2 control of Y50A-2): -1.812
Best-fit LogEC50 (SSTR2-WT-2 control of Y50A-2): -6.566
Best-fit Span (SSTR2-WT-2 control of Y50A-2): 107.5
Best-fit Top (SSTR2-WT-2 control of Y50A-2): 105.7
Best-fit Bottom (SSTR2-WT-3 control of Y50A-3): -2.538
Best-fit LogEC50 (SSTR2-WT-3 control of Y50A-3): -6.515
Best-fit Span (SSTR2-WT-3 control of Y50A-3): 108.6
Best-fit Top (SSTR2-WT-3 control of Y50A-3): 106.1
Span (best-fit value) (SSTR2-WT, run WT-1): 106.4 and 106.9 and 102.6 and 115.9 and 106
Top (best-fit value) (SSTR2-WT, run WT-1): 107.4 and 107.9 and 101.5 and 113.5 and 105.5
Span (best-fit value) (SSTR2-WT, run WT-2): 106.4 and 103.6 and 103.9 and 102.6 and 106.8
Top (best-fit value) (SSTR2-WT, run WT-2): 107.4 and 106.9 and 102.6 and 101.5 and 107.6
Span (best-fit value) (SSTR2-WT, run WT-3): 112.3 and 105.2 and 106 and 103.9 and 104.9 and 106.4
Top (best-fit value) (SSTR2-WT, run WT-3): 109 and 103.8 and 105.5 and 102.6 and 107.1 and 107.4
β-arrestin recruitment (SSTR2 WT): lower efficacy of β-arrestin recruitment
β-arrestin recruitment (SSTR2 WT, listed as Paltusotine): lower β-arrestin recruitment compared with octreotide
Bottom (best-fit) (WT-1 (D122A set)): 1.007
LogEC50 (best-fit) (WT-1 (D122A set)): -6.376
Span (best-fit) (WT-1 (D122A set)): 106.9
Top (best-fit) (WT-1 (D122A set)): 107.9
Bottom (best-fit) (WT-1 (F127A set)): -9.341
LogEC50 (best-fit) (WT-1 (F127A set)): -6.513
Span (best-fit) (WT-1 (F127A set)): 113.7
Top (best-fit) (WT-1 (F127A set)): 104.3
Bottom (best-fit) (WT-1 (I130A set)): -0.4941
LogEC50 (best-fit) (WT-1 (I130A set)): -6.535
Span (best-fit) (WT-1 (I130A set)): 106
Top (best-fit) (WT-1 (I130A set)): 105.5
Span (best-fit) (WT-1 (Q102A set)): 106.9
Bottom (best-fit) (WT-1 (Q126A set)): 0.5008
LogEC50 (best-fit) (WT-1 (Q126A set)): -6.514
Span (best-fit) (WT-1 (Q126A set)): 104.2
Top (best-fit) (WT-1 (Q126A set)): 104.7
Bottom (best-fit) (WT-1 (V103A set)): 0.5008
LogEC50 (best-fit) (WT-1 (V103A set)): -6.514
Span (best-fit) (WT-1 (V103A set)): 104.2
Top (best-fit) (WT-1 (V103A set)): 104.7
Bottom (best-fit) (WT-2 (D122A set)): 3.261
LogEC50 (best-fit) (WT-2 (D122A set)): -6.399
Span (best-fit) (WT-2 (D122A set)): 103.6
Top (best-fit) (WT-2 (D122A set)): 106.9
Bottom (best-fit) (WT-2 (F127A set)): -1.812
LogEC50 (best-fit) (WT-2 (F127A set)): -6.566
Span (best-fit) (WT-2 (F127A set)): 107.5
Top (best-fit) (WT-2 (F127A set)): 105.7
Bottom (best-fit) (WT-2 (I130A set)): -1.026
LogEC50 (best-fit) (WT-2 (I130A set)): -6.849
Span (best-fit) (WT-2 (I130A set)): 102.6
Top (best-fit) (WT-2 (I130A set)): 101.5
Bottom (best-fit) (WT-2 (Q126A set)): 0.9805
LogEC50 (best-fit) (WT-2 (Q126A set)): -6.342
Span (best-fit) (WT-2 (Q126A set)): 106.4
Top (best-fit) (WT-2 (Q126A set)): 107.4
Bottom (best-fit) (WT-2 (V103A set)): 0.4349
LogEC50 (best-fit) (WT-2 (V103A set)): -6.531
Span (best-fit) (WT-2 (V103A set)): 102.7
Top (best-fit) (WT-2 (V103A set)): 103.1
Bottom (best-fit) (WT-3 (D122A set)): 0.9805
LogEC50 (best-fit) (WT-3 (D122A set)): -6.342
Span (best-fit) (WT-3 (D122A set)): 106.4
Top (best-fit) (WT-3 (D122A set)): 107.4
Bottom (best-fit) (WT-3 (F127A set)): -0.4941
LogEC50 (best-fit) (WT-3 (F127A set)): -6.535
Span (best-fit) (WT-3 (F127A set)): 106
Top (best-fit) (WT-3 (F127A set)): 105.5
Bottom (best-fit) (WT-3 (I130A set)): -1.282
LogEC50 (best-fit) (WT-3 (I130A set)): -6.883
Span (best-fit) (WT-3 (I130A set)): 103.9
Top (best-fit) (WT-3 (I130A set)): 102.6
Span (best-fit) (WT-3 (Q102A set)): 106.4
Bottom (best-fit) (WT-3 (Q126A set)): 0.9805
LogEC50 (best-fit) (WT-3 (Q126A set)): -6.342
Span (best-fit) (WT-3 (Q126A set)): 106.4
Top (best-fit) (WT-3 (Q126A set)): 107.4
Bottom (best-fit) (WT-3 (V103A set)): 0.5008
LogEC50 (best-fit) (WT-3 (V103A set)): -6.514
Span (best-fit) (WT-3 (V103A set)): 104.2
Top (best-fit) (WT-3 (V103A set)): 104.7
Bottom (β-arrestin1 recruitment) (best-fit, WT-1): 1.007 and 0.9805 and 0.9636
LogEC50 (β-arrestin1 recruitment) (best-fit, WT-1): -6.376 and -6.342 and -6.276
Span (β-arrestin1 recruitment) (best-fit, WT-1): 106.9 and 106.4 and 106.5
Top (β-arrestin1 recruitment) (best-fit, WT-1): 107.9 and 107.4 and 107.5
Bottom (β-arrestin1 recruitment) (best-fit, WT-2): 0.9805 and 1.007 and 0.8106
LogEC50 (β-arrestin1 recruitment) (best-fit, WT-2): -6.342 and -6.376 and -6.212
Span (β-arrestin1 recruitment) (best-fit, WT-2): 106.4 and 106.9 and 106.8
Top (β-arrestin1 recruitment) (best-fit, WT-2): 107.4 and 107.9 and 107.6
LogEC50 (β-arrestin1 recruitment) (best-fit, WT-3): -6.342 and -6.376 and -6.269
Span (β-arrestin1 recruitment) (best-fit, WT-3): 106.4 and 106.9 and 104.9
Top (β-arrestin1 recruitment) (best-fit, WT-3): 107.4 and 107.9 and 107.1
Fold of WT (β-arrestin recruitment EC50, SSTR2 WT): 1
